Measured values reported in ChEMBL document CHEMBL1909046, “DrugMatrix in vitro pharmacology data”.

Experiments:
[1] = target: Delta-type opioid receptor (Homo sapiens, UniProt P41143); assay type: cell membranes, Membrane; settings: hek293; further: in other assays of this panel Not Active means under 50% inhibition at 10 µM
[2] = DRUGMATRIX: Phosphodiesterase PDE3 enzyme inhibition (substrate: [3H]cAMP + cAMP); assay type: tissue-based, Homo sapiens; settings: platelet; Not Active = under 50% inhibition at 10 µM
[3] = DRUGMATRIX: Nicotinic Acetylcholine radioligand binding (ligand: [125I] Epibatidine); assay type: cell membranes, Membrane; settings: imr-32; Not Active = under 50% inhibition at 10 µM
[4] = target: 5-hydroxytryptamine receptor 6 (Homo sapiens, UniProt P50406); assay type: cell membranes, HeLa, Membrane; further: in other assays of this panel Not Active means under 50% inhibition at 10 µM
[5] = target: T1, Receptor-type tyrosine-protein phosphatase C (Homo sapiens, UniProt P08575); design: species or system Escherichia coli;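 further: inhibition of CD45 enzyme activity measured using DiFMUP as substrate; in other assays of this panel Not Active means under 50% inhibition at 10 µM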
T1 sequence (P08575 whole entry): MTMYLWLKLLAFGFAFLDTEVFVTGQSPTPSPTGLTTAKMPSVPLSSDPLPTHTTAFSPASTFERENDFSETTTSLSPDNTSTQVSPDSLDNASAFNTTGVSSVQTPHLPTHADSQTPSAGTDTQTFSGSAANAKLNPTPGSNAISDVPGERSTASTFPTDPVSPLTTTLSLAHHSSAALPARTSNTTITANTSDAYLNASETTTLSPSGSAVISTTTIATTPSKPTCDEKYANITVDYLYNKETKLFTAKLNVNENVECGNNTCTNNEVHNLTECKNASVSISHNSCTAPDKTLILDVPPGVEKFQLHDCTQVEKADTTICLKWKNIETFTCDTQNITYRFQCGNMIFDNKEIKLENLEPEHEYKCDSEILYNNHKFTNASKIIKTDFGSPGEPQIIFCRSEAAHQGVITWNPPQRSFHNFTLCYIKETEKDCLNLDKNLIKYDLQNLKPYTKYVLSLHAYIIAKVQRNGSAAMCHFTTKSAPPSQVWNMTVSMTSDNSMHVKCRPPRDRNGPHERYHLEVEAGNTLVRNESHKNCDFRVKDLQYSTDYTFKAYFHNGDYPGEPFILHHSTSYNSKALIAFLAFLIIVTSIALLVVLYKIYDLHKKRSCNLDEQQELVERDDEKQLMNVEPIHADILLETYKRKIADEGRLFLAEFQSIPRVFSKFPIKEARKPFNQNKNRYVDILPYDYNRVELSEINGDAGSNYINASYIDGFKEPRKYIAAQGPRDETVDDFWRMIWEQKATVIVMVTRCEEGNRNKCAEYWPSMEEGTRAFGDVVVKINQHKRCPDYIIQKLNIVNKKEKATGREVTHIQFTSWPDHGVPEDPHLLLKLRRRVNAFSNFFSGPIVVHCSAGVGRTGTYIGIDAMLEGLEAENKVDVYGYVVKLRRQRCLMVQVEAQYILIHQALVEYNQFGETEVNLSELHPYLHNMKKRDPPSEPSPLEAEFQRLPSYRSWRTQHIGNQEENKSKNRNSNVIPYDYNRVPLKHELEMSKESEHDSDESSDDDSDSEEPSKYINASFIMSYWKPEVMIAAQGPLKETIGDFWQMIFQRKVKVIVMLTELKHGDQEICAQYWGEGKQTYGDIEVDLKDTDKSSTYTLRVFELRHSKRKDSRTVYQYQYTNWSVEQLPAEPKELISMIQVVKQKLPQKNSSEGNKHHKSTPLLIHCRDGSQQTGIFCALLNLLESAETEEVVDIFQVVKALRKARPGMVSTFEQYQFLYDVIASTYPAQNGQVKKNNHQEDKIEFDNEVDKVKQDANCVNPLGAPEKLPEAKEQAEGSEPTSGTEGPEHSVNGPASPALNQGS

Cytochrome P450 1A2 = target: T2, Cytochrome P450 1A2 (Homo sapiens, UniProt P05177); settings: bti-tn-5b1-4; further: in other assays of this panel Not Active means under 50% inhibition at 10 µM
T2 sequence (P05177 whole entry): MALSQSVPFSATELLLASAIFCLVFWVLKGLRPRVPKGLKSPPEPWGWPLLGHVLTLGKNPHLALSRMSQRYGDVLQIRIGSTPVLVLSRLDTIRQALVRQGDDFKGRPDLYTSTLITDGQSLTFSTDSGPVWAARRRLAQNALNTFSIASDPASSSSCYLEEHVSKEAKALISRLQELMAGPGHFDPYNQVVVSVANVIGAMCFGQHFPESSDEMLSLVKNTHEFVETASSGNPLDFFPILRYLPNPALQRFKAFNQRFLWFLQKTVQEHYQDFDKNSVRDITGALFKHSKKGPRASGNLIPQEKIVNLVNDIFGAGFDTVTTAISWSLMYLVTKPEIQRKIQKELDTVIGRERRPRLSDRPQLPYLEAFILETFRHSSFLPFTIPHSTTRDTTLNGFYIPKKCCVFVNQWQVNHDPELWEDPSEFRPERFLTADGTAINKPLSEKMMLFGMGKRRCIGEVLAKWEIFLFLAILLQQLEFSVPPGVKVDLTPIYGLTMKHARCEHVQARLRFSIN

[6] = target: T3, 5-hydroxytryptamine receptor 2C (Homo sapiens, UniProt P28335); assay: DRUGMATRIX: Serotonin (5-Hydroxytryptamine) 5-HT2C radioligand binding (ligand: [3H] Mesulergine); assay type: cell membranes, CHO-K1, Membrane; settings: Not Active = under 50% inhibition at 10 µM; for Ki: read-out: Ki
T3 sequence (P28335 whole entry): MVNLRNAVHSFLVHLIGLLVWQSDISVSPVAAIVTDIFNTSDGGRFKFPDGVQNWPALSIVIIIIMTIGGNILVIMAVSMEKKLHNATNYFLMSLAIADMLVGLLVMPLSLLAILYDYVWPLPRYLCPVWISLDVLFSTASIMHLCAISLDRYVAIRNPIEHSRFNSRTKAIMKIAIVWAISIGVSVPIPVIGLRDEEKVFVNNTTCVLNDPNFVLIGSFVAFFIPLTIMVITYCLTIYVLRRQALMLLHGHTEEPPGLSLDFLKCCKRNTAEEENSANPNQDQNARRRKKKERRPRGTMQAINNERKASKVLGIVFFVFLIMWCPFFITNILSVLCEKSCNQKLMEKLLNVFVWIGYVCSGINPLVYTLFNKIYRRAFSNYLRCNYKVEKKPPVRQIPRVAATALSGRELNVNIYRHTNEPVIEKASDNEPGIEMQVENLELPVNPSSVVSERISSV

Chain of Delta-type opioid receptor (P41143 whole entry): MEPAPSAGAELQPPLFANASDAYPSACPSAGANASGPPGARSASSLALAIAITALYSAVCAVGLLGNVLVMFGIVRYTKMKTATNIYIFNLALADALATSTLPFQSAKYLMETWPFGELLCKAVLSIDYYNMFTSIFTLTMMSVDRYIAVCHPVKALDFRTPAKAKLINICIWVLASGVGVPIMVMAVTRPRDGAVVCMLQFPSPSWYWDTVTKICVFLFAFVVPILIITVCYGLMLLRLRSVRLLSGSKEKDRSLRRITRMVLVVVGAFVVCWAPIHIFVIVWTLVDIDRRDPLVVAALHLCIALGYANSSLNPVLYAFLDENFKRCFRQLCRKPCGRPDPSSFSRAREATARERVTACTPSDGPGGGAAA
Chain of 5-hydroxytryptamine receptor 6 (P50406 whole entry): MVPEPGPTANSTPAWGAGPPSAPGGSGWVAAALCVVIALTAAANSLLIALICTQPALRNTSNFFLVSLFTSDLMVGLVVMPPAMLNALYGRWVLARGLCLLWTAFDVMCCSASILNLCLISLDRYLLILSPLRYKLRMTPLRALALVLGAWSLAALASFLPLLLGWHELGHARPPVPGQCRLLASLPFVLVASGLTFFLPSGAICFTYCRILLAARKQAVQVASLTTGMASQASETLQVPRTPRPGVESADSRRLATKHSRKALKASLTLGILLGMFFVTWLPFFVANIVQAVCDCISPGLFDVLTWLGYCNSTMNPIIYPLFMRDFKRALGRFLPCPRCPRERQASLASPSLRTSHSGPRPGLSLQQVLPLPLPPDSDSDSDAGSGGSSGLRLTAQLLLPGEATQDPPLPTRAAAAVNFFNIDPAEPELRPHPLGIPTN

SMILES | IC50 [1] | IC50 [2] | Ki [2] | IC50 [3] | Ki [3] | IC50 ([4]; hela) | IC50 [5] | IC50 (Cytochrome P450 1A2) | Ki (Cytochrome P450 1A2) | IC50 ([6]; cho-k1) | IC50 ([6]; read-out: IC50) | Ki [6] | IC50 ([4]; read-out: IC50) | Ki ([4]; read-out: Ki)
O=C1CN=C(c2ccccc2Cl)c2cc([N+](=O)[O-])ccc2N1 [CLONAZEPAM] | Not Active | Not Active | Not Active | Not Active | Not Active | Not Active | Not Active | Not Active | Not Active | Not Active | – | – | – | –
Nc1ccn([C@@H]2O[C@H](CO)[C@@H](O)[C@@H]2O)c(=O)n1 [CYTARABINE] | Not Active | Not Active | Not Active | Not Active | Not Active | Not Active | Not Active | Not Active | Not Active | Not Active | – | – | – | –
C[C@@H]1C[C@H]2[C@@H]3CCC4=CC(=O)C=C[C@]4(C)[C@@]3(F)[C@@H](O)C[C@]2(C)[C@H]1C(=O)CO [DESOXIMETASONE] | Not Active | Not Active | Not Active | Not Active | Not Active | Not Active | Not Active | Not Active | Not Active | Not Active | – | – | – | –
C[C@@H]1C[C@H]2[C@@H]3CCC4=CC(=O)C=C[C@]4(C)[C@@]3(F)[C@@H](O)C[C@]2(C)[C@@]1(O)C(=O)CO [DEXAMETHASONE] | Not Active | Not Active | Not Active | Not Active | Not Active | Not Active | Not Active | Not Active | Not Active | Not Active | – | – | – | –
CN(C)CC[C@@H](c1ccc(Cl)cc1)c1ccccn1 [DEXCHLORPHENIRAMINE] | Not Active | Not Active | Not Active | Not Active | Not Active | Not Active | Not Active | Not Active | Not Active | – | 2320 nM | 1220 nM | – | –
C[C@@H]1CC[C@@]2(OC1)O[C@H]1[C@@H](O)[C@H]3[C@@H]4CC[C@H]5C[C@@H](O[C@@H]6O[C@H](CO)[C@H](O[C@@H]7O[C@H](CO)C(O)[C@H](O[C@@H]8OC[C@@H](O)[C@H](O)[C@H]8O)[C@H]7O[C@@H]7O[C@H](CO)[C@H](O)[C@H](O[C@@H]8O[C@H](CO)[C@@H](O)[C@H](O)[C@H]8O)[C@H]7O)[C@H](O)[C@H]6O)[C@H](O)C[C@]5(C)[C@H]4CC[C@]3(C)[C@H]1[C@@H]2C (stereo partly drawn) [DIGITONIN] | Not Active | Not Active | Not Active | Not Active | Not Active | Not Active | Not Active | Not Active | Not Active | Not Active | – | – | – | –
OC(CCCN1CCCCC1)(c1ccccc1)c1ccccc1 [DIPHENIDOL] | Not Active | Not Active | Not Active | Not Active | Not Active | Not Active | Not Active | Not Active | Not Active | Not Active | – | – | – | –
C[C@H]1O[C@@H](n2cc(F)c(=O)[nH]c2=O)[C@H](O)[C@@H]1O [DOXIFLURIDINE] | Not Active | Not Active | Not Active | Not Active | Not Active | Not Active | Not Active | Not Active | Not Active | Not Active | – | – | – | –
Cn1c(=O)c2c(ncn2CC(O)CO)n(C)c1=O (stereo not drawn) [DYPHYLLINE] | Not Active | Not Active | Not Active | Not Active | Not Active | Not Active | Not Active | Not Active | Not Active | Not Active | – | – | – | –
CC[C@H]1CN2CCc3cc(OC)c(OC)cc3[C@@H]2C[C@@H]1C[C@H]1NCCc2cc(OC)c(OC)cc21 [EMETINE] | Not Active | Not Active | Not Active | Not Active | Not Active | Not Active | Not Active | Not Active | Not Active | Not Active | – | – | – | –
C[C@@H](CO)NC(=O)[C@@H]1C=C2c3cccc4[nH]cc(c34)C[C@H]2N(C)C1 [ERGONOVINE] | Not Active | Not Active | Not Active | Not Active | Not Active | – | Not Active | Not Active | Not Active | – | 21 nM | 11 nM | 3.24 nM | 1.5 nM
COC(=O)CCc1ccc(OCC(O)CNC(C)C)cc1 (stereo not drawn) [ESMOLOL] | Not Active | Not Active | Not Active | Not Active | Not Active | Not Active | Not Active | Not Active | Not Active | Not Active | – | – | – | –
CCC1(C)CC(=O)NC1=O (stereo not drawn) [ETHOSUXIMIDE] | Not Active | Not Active | Not Active | Not Active | Not Active | Not Active | Not Active | Not Active | Not Active | Not Active | – | – | – | –
C#C[C@]1(OC(C)=O)CC[C@H]2[C@@H]3CCC4=C[C@@H](OC(C)=O)CC[C@@H]4[C@H]3CC[C@@]21C [ETHYNODIOL DIACETATE] | Not Active | Not Active | Not Active | Not Active | Not Active | Not Active | Not Active | Not Active | Not Active | Not Active | – | – | – | –
C=CCc1ccc(O)c(OC)c1 [EUGENOL] | Not Active | Not Active | Not Active | Not Active | Not Active | Not Active | Not Active | Not Active | Not Active | Not Active | – | – | – | –
CC(C(=O)O)c1cccc(Oc2ccccc2)c1 (stereo not drawn) [FENOPROFEN] | Not Active | Not Active | Not Active | Not Active | Not Active | Not Active | Not Active | Not Active | Not Active | Not Active | – | – | – | –
